Data: patent US20200069648A1, “HALOALLYLAMINE PYRAZOLE DERIVATIVE INHIBITORS OF LYSYL OXIDASES AND USES THEREOF” (Pharmaxis Ltd., priority 2017, published 2020)
Where a name gives a salt, the structure may show the parent alone.

Legend:
[1] = target: T1, human recombinant SSAO/VAP-1 (Homo sapiens, UniProt Q16853); experiment: Human recombinant SSAO/VAP-1 amine oxidase inhibition; type: biochemical; details: 30 min preincubation at 37° C., 600 μM benzylamine
T1 construct: a cloned cDNA template corresponding to residues 34-763 of human SSAO/VAP-1; TEV cleavage site (N); made in house
T1 sequence (Q16853 34-763): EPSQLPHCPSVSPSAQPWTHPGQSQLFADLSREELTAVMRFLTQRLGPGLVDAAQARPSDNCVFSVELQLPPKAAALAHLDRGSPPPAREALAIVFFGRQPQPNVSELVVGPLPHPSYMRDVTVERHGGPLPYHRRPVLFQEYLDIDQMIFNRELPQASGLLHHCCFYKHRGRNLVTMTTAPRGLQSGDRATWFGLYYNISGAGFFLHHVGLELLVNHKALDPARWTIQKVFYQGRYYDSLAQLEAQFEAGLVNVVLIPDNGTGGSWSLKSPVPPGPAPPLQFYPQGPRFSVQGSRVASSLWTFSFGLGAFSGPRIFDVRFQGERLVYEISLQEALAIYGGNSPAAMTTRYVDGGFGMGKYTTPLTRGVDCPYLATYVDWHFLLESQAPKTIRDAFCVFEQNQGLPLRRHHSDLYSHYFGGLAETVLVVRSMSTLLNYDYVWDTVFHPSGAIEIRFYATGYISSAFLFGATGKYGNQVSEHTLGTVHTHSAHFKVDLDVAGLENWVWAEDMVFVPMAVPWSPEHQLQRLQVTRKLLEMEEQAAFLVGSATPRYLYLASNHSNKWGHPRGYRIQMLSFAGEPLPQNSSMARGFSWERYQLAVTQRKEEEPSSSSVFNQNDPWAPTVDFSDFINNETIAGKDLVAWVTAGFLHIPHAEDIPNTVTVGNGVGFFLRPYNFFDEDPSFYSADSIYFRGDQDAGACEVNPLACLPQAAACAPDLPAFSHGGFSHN
Method: Method to Determine the Ability of Compounds of Formula I to Inhibit Human Recombinant SSAO/VAP-1
Human recombinant SSAO/VAP-1 amine oxidase activity was determined using the coupled colorimetric method as described for monoamine oxidase, copper-containing amine oxidases and related enzymes (Holt A. and Palcic M., A peroxidase-coupled continuous absorbance plate-reader assay for flavin monoamine oxidases, copper-containing amine oxidases and related enzymes. Nat Protoc 2006; 1: 2498-2505). Briefly, a cloned cDNA template corresponding to residues 34-763 of human SSAO/VAP-1, and incorporating a mouse Ig kappa (κ) signal sequence, N-terminal flag epitope tag and tobacco etch virus (TEV) cleavage site, was assembled in a mammalian expression vector (pLO-CMV) by Geneart AG. This vector containing human SSAO/VAP-1 residues was transfected into CHO-K1 glycosylation mutant cell line, Lec 8. A clone stably expressing human SSAO/VAP-1 was isolated and cultured in large scale. Active human SSAO/VAP-I was purified and recovered using immunoaffinity chromatography. This was used as the source for SSAO/VAP-1 activity. A high-throughput colorimetric assay was developed using either 96 or 384 well format. Briefly, in a standard 96 well plate assay 50 μL of purified human SSAO/VAP-1 (0.25 μg/mL) in 0.1 M sodium phosphate buffer (pH 7.4) was added into each well. Test compounds were dissolved in DMSO and tested in a Concentration Response Curve (CRC) with 4-11 data points, typically in the micromolar or nanomolar range after incubation with human SSAO/VAP-1 for 30 min at 37° C. After 30 min incubation, 50 μL of the reaction mixture containing 600 μM benzylamine (Sigma Aldrich), 120 μM Amplex Red (Sigma Aldrich) and 1.5 U/mL horseradish peroxidase (Sigma Aldrich) prepared in 0.1 M sodium phosphate buffer (pH 7.4) were added to the corresponding well. The fluorescence unit (RFU) was read every 2.5 min for 30 min at 37° C. excitation 565 nm and emission 590 (Optima; BMG labtech). The slope of the kinetics for each well was calculated using MARS data analysis software (BMG labtech) and this value was used to deduce the IC50 value (Dotmatics).

Recombinant human MAO-B = target: T2, Recombinant human MAO-B (Homo sapiens, UniProt P27338); experiment: Human recombinant MAO-B inhibition; type: biochemical; details: benzylamine 100 μM
T2 construct: purchased Sigma Aldrich
T2 sequence (P27338 1-520): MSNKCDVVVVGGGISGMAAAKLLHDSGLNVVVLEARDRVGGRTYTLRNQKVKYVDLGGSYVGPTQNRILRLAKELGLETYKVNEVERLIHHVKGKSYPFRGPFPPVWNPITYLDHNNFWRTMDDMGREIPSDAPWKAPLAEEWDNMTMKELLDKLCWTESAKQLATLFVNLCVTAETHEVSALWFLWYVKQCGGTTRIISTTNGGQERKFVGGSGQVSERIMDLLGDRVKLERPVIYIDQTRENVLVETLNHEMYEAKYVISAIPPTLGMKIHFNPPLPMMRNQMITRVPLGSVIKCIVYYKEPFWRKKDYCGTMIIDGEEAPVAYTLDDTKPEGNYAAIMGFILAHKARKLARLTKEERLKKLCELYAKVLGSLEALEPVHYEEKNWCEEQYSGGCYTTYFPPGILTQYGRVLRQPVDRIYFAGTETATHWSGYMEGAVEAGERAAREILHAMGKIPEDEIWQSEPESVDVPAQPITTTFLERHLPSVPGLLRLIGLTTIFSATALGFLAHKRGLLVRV
In short: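 Recombinant human MAO-B (0.06 mg/mL) served as enzyme, with 100 μM benzylamine as substrate. Other conditions followed the human SSAO/VAP-1 assay.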

| SMILES | IC50 [1] [µM] | IC50 (Recombinant human MAO-B) [µM] |
| --- | --- | --- |
| Cc1nn(C/C(F)=C/CN)c(C)c1Cc1cccc(S(=O)(=O)N(C)C)c1 [Compound 5, (Z)-3-((1-(4-amino-2-fluorobut-2-en-1-yl)-3,5-dimethyl-1H-pyrazol-4-yl)methyl)-N,N-dimethyl benzenesulfonamide hydrochloride] | > 30 | > 30 |
| Cc1nn(C/C(F)=C/CN)c(C)c1Cc1ccc(S(C)(=O)=O)c(Cl)c1 [Compound 16, (Z)-4-(4-(3-chloro-4-(methylsulfonyl)benzyl)-3,5-dimethyl-1H-pyrazol-1-yl)-3-fluorobut-2-en-1-amine hydrochloride] | > 10 | > 30 |
